For 15 compounds, fold induction and IC50 results are on record in US20250296939A1, “BENZOTHIOPHENE COMPOUND” (Kyoto Pharmaceutical Industries, Ltd., priority 2022, published 2025).

pIC50: −log10 of the molar value. A value given as a limit tells only on which side of the number the result lay.

Experiment [1] relates to NQO1 activity in Hepa1c1c7 cells. Description: NAD(P)H: quinone oxidoreductase-1 (NQO1) enzyme induction assay (in vitro). Type of experiment: cell-based, mouse. The following applies: Mus musculus, Hepa-1c1c7, NQO1 activity upon addition of 400 nM of test compound, about 48 hr, ratio from the base without the compound. Here is the method: Experimental Example 2: NAD(P)H: Quinone Oxidoreductase-1 (NQO1) Enzyme Induction Assay (In Vitro)
The NQO1 assay was performed based on a previous report (Methods in Enzymology 2004; 382: 243-258). Hepa1c1c7 cells (mouse hepatocyte cell line, ATCC, cat. no. CRL-2026) were cultured in D-MEM medium containing 10% FBS and 1% penicillin/streptomycin (5% CO2, 37° C.), and seeded into 96-well plates (Corning REF. 353072) at 1×10^4 cells/well. A portion of the wells were prepared with medium only for background measurement without seeding cells. The next day, 400 nM of the test compound (0.004% of the final concentration in DMSO) dissolved in DMSO was added thereto, and the wells were incubated for about 48 hr. A well without adding the test compound was prepared for base activity assay in part.
Cell lysate (solution containing 0.8% digitonin, 2 mM EDTA), reaction solution (solution containing 25 mM Tris-HCl, 0.07% albumin, 0.01% Tween-20, 2 U/mL glucose-6-phosphate dehydrogenase, 5 μM flavin adenine dinucleotide, 1 μM glucose-6-phosphate, 30 μM nicotinamide adenine dinucleotide phosphate, 0.03% 3-(4,5-dimethyl-2-thiazolyl)-2,5-diphenyltetrazolium bromide (MTT), and 50 μM menadione), stop solution (solution containing 0.3 mM dicoumarol and 5 mM potassium dihydrogen phosphate, pH 7.4) were prepared. After the medium was removed, 50 μL of the cell lysate was added and incubated at 37° C. for 10 minutes, followed by shaking at room temperature for 10 minutes. 200 μL of reaction solution was added thereto, and allowed to stand for 5 minutes at room temperature. 50 μL of the stop solution was added thereto, and absorbance was measured at 610 nm on a SpectraMax PLUS384 (Molecular devices) or POWERSCAN HT (DS Pharma Biomedical). The test results were analyzed in Excel, and the NQO1 activity upon addition of 400 nM of test compound was calculated as a ratio from the base without the compound.
The results of each test compound in this test are shown in the following Table 2 (A: 5<NQO1 activity ratio, B: 3<NQO1 activity ratio 5, C: 1.5<NQO1 activity ratio 3).

Experiment [2] deals with GST-fused human Keap1 (amino acid residues: 325-642) protein (Homo sapiens (Human), UniProt Q14145). Description: FP assay (in vitro): inhibition of binding between Nrf2 and Keap1 by fluorescence polarization. The following applies: 20 nM GST-fused human Keap1, 10 nM FITC-labeled Nrf2 peptide, 2 hr at room temperature. A general note: Fluorescence polarisation rises when a labelled molecule tumbles more slowly, as on binding a larger partner.
Chain of GST-fused human Keap1 (amino acid residues: 325-642) protein (Q14145 325-624 limits assumed): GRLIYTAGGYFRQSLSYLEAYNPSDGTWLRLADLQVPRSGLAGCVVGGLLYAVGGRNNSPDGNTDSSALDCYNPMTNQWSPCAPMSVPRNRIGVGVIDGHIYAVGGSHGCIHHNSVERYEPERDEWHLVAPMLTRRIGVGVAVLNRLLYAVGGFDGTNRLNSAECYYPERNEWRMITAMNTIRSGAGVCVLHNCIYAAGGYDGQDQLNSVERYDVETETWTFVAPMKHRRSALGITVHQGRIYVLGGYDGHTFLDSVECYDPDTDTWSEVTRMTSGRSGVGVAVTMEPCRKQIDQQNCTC

For the compound `Cc1c([C@H](CC(=O)O)c2cc(CN3Cc4nc(O)ccc4O[C@H](C(C)(F)F)C3)c3sccc3c2)ccc2c1nnn2C` [Example 45, (3R)-3-(7-{[(2S)-2-(1,1-Difluoroethyl)-7-hydroxy-2,3-dihydropyrido[2,3-f][1,4]oxazepin-4(5H)-yl]methyl}-1-benzothiophen-5-yl)-3-(1,4-dimethyl-1H-benzotriazol-5-yl)propanoic acid], the fold induction (in general, the signal under treatment as a multiple of the control signal) at 0.4 µM in experiment [1] is > 5. For the same compound, in experiment [2], the pIC50 (as a rule, the IC50 on a negative log10 scale, so that one unit is a factor of ten) is 7.52 to 8.00.
As for `CC[C@@H]1CN(Cc2cc([C@@H](CC(=O)O)c3cc(OC(F)F)c4c(nnn4C)c3C)cc3ccsc23)Cc2nc(O)ccc2O1` [Example 43, (3R)-3-[7-(Difluoromethoxy)-1,4-dimethyl-1H-benzotriazol-5-yl]-3-(7-{[(2R)-2-ethyl-7-hydroxy-2,3-dihydropyrido[2,3-f][1,4]oxazepin-4(5H)-yl]methyl}-1-benzothiophen-5-yl)propanoic acid], the fold induction at 0.4 µM in experiment [1] was > 5. Besides, the pIC50 in experiment [2] is 7.52 to 8.00.
The matching figures for `CC[C@H]1Cc2ccc(O)nc2CN(Cc2cc([C@@H](CC(=O)O)c3ccc4c(nnn4C)c3C)cc3ccsc23)C1` [Example 72, (3R)-3-(1,4-Dimethyl-1H-benzotriazol-5-yl)-3-(7-{[(6S)-6-ethyl-2-hydroxy-5,6,7,9-tetrahydro-8H-pyrido[2,3-c]azepin-8-yl]methyl}-1-benzothiophen-5-yl)propanoic acid]: > 5 and 6.52 to 7.52.
Turning to `Cc1c([C@@H](CC(=O)O)c2cc(CN3Cc4nc(O)ccc4O[C@H](C4CC4)C3)c3sccc3c2)ccc2c1nnn2C` [Example 6, (3S)-3-(7-{[(2R)-2-Cyclopropyl-7-hydroxy-2,3-dihydropyrido[2,3-f][1,4]oxazepin-4(5H)-yl]methyl}-1-benzothiophen-5-yl)-3-(1,4-dimethyl-1H-benzotriazol-5-yl)propanoic acid], the fold induction at 0.4 µM in experiment [1] was > 5. This compound had a pIC50 in experiment [2] of 7.52 to 8.00.
The matching figures for `CC[C@@H]1CN(Cc2cc([C@H](CC(=O)O)c3ccc4c(nnn4CCN(C)C)c3C)cc3ccsc23)Cc2nc(O)ccc2O1` [Example 26, (3S)-3-{1-[2-(Dimethylamino)ethyl]-4-methyl-1H-benzotriazol-5-yl}-3-(7-{[(2R)-2-ethyl-7-hydroxy-2,3-dihydropyrido[2,3-f][1,4]oxazepin-4(5H)-yl]methyl}-1-benzothiophen-5-yl)propanoic acid]: 3 to 5 and 7.52 to 8.00.
As for `CC[C@@H]1CN(Cc2cc(C(CC(=O)O)c3ccc4c(nnn4CCCS(C)(=O)=O)c3C)cc3ccsc23)Cc2nc(O)ccc2O1` (stereo partly drawn) [Example 62, 3-(7-{[(2R)-2-Ethyl-7-hydroxy-2,3-dihydropyrido[2,3-f][1,4]oxazepin-4(5H)-yl]methyl}-1-benzothiophen-5-yl)-3-{4-methyl-1-[3-(methylsulfonyl)propyl]-1H-benzotriazol-5-yl}propanoic acid], the fold induction at 0.4 µM in experiment [1] is > 5. In experiment [2], this compound had a pIC50 of 7.52 to 8.00.
The matching figures for `CC[C@@H]1CN(Cc2cc([C@@H](c3cnc4c(nnn4C)c3C)C(C)(C)C(=O)O)cc3ccsc23)Cc2nc(O)ccc2O1` [Example 48, (3S)-3-(3,7-Dimethyl-3H-[1,2,3]triazolo[4,5-b]pyridin-6-yl)-3-(7-{[(2R)-2-ethyl-7-hydroxy-2,3-dihydropyrido[2,3-f][1,4]oxazepin-4(5H)-yl]methyl}-1-benzothiophen-5-yl)-2,2-dimethylpropanoic acid]: > 5 and 7.52 to 8.00.
As for `CC[C@H]1Cc2cccnc2CN(Cc2cc([C@H](CC(=O)O)c3ccc4c(nnn4C)c3C)cc3ccsc23)C1` [Example 70, (3S)-3-(1,4-Dimethyl-1H-benzotriazol-5-yl)-3-(7-{[(6S)-6-ethyl-5,6,7,9-tetrahydro-8H-pyrido[2,3-c]azepin-8-yl]methyl}-1-benzothiophen-5-yl)propanoic acid], in experiment [1], the fold induction at 0.4 µM was > 5. In addition, in experiment [2], the negative-log IC50 (pIC50) was ≥ 8.00.
As for `CC[C@@H]1CN(Cc2cc([C@H](CC(=O)O)c3ccc4c(nnn4CC(C)(C)O)c3C)cc3ccsc23)Cc2nc(O)ccc2O1` [Example 20, (3S)-3-(7-{[(2R)-2-Ethyl-7-hydroxy-2,3-dihydropyrido[2,3-f][1,4]oxazepin-4(5H)-yl]methyl}-1-benzothiophen-5-yl)-3-[1-(2-hydroxy-2-methylpropyl)-4-methyl-1H-benzotriazol-5-yl]propanoic acid], the fold induction at 0.4 µM in experiment [1] fell in the range of 3 to 5. In experiment [2], the pIC50 was 7.52 to 8.00.
Turning to `CC[C@@H]1CN(Cc2cc([C@@H](CC(=O)O)c3ccc4c(nnn4C)c3C)cc3ccsc23)Cc2nc(O)ccc2O1` [Example 2, (3R)-3-(1,4-Dimethyl-1H-benzotriazol-5-yl)-3-(7-{[(2R)-2-ethyl-7-hydroxy-2,3-dihydropyrido[2,3-f][1,4]oxazepin-4(5H)-yl]methyl}-1-benzothiophen-5-yl)propanoic acid], the fold induction at 0.4 µM in experiment [1] is > 5. In experiment [2], this compound gave a pIC50 of 6.52 to 7.52.
Consider `CC[C@@H]1CN(Cc2cc([C@@H](CC(=O)O)c3cc(OC(F)(F)F)c4c(nnn4C)c3C)cc3ccsc23)Cc2nc(O)ccc2O1` [Example 41, (3R)-3-[1,4-Dimethyl-7-(trifluoromethoxy)-1H-benzotriazol-5-yl]-3-(7-{[(2R)-2-ethyl-7-hydroxy-2,3-dihydropyrido[2,3-f][1,4]oxazepin-4(5H)-yl]methyl}-1-benzothiophen-5-yl)propanoic acid], for which the fold induction at 0.4 µM in experiment [1] is > 5. The pIC50 in experiment [2] was ≥ 8.00.
Turning to `CC[C@@H]1CN(Cc2cc([C@H](CC(=O)O)c3cc(OC)c4c(nnn4C)c3C)cc3ccsc23)Cc2nc(O)ccc2O1` [Example 22, (3S)-3-(7-{[(2R)-2-Ethyl-7-hydroxy-2,3-dihydropyrido[2,3-f][1,4]oxazepin-4(5H)-yl]methyl}-1-benzothiophen-5-yl)-3-(7-methoxy-1,4-dimethyl-1H-benzotriazol-5-yl)propanoic acid], the fold induction at 0.4 µM in experiment [1] was 3 to 5. The negative logarithm of the IC50 (pIC50) in experiment [2] was ≥ 8.00.
The corresponding values for `CC[C@@H]1CN(Cc2cc([C@@H](CC(=O)O)c3ccc4c(nnn4CCN(C)C)c3C)cc3ccsc23)Cc2nc(O)ccc2O1` [Example 25, (3R)-3-{1-[2-(Dimethylamino)ethyl]-4-methyl-1H-benzotriazol-5-yl}-3-(7-{[(2R)-2-ethyl-7-hydroxy-2,3-dihydropyrido[2,3-f][1,4]oxazepin-4(5H)-yl]methyl}-1-benzothiophen-5-yl)propanoic acid] are > 5 and 7.52 to 8.00.
With `CC[C@H]1Cc2ccc(O)nc2CN(Cc2cc([C@H](CC(=O)O)c3cnc4c(nnn4C)c3C)cc3ccsc23)C1` [Example 81, (3S)-3-(3,7-Dimethyl-3H-[1,2,3]triazolo[4,5-b]pyridin-6-yl)-3-(7-{[(6S)-6-ethyl-2-hydroxy-5,6,7,9-tetrahydro-8H-pyrido[2,3-c]azepin-8-yl]methyl}-1-benzothiophen-5-yl)propanoic acid], the fold induction at 0.4 µM in experiment [1] was > 5. Also, the pIC50 in experiment [2] is 7.52 to 8.00.
The corresponding values for `CC[C@@H]1CN(Cc2cc([C@@H](CC(=O)O)c3cc(C(F)(F)F)c4c(nnn4C)c3C)cc3ccsc23)Cc2nc(O)ccc2O1` [Example 29, (3R)-3-[1,4-Dimethyl-7-(trifluoromethyl)-1H-benzotriazol-5-yl]-3-(7-{[(2R)-2-ethyl-7-hydroxy-2,3-dihydropyrido[2,3-f][1,4]oxazepin-4(5H)-yl]methyl}-1-benzothiophen-5-yl)propanoic acid] are > 5 and 7.52 to 8.00.
